Experimental data: patent US20220002399A1, “METHODS FOR DECREASING INFLUENZA-INDUCED LETHALITY USING GASTRIN-RELEASING PEPTIDE (GRP) INHIBITORS OR GASTRIN-RELEASING PEPTIDE RECEPTOR (GRPR) ANTAGONISTS” (University of Maryland, Baltimore, priority 2018, published 2022)
Ends that are not written are not given here.

How the values were obtained:
[1] = tested on: radiation-induced pneumonitis/fibrosis; settings: therapeutic administration; cited from earlier work
[2] = tested on: LPS signaling (TLR4) in WT C57BL/6J peritoneal macrophages; assay: LPS signaling in peritoneal macrophages pre-treated with GRP inhibitor or GRPR antagonist; assay type: cell-based, mouse; settings: 0.5 μM pre-treatment 1 h, then LPS (10 ng/ml) 2 h
[3] = tested on: influenza-induced cytokine induction; assay: Lung cytokine gene expression by qRT-PCR in PR8-infected mice; assay type: in vivo, WT C57BL/6J mice; parameters: lung mRNA expression of IFN-β: dose or concentration left out as unconfirmed
[4] = tested on: pulmonary neuroendocrine cells (PNECs); assay: IHC staining for pulmonary neuroendocrine cells (PGP 9.5, GRP) in influenza-infected mice; assay type: in vivo, WT C57BL/6J mice
From the text: FIG. 4. IHC staining for pulmonary neuroendocrine cells (PNECs), PGP 9.5, and GRP in influenza-infected mice. Lung sections from FIG. 3 were stained in a mock-infected, c PR8+vehicle, and e PR8+NSC77427 for neural/neuroendocrine-specific PGP 9.5, or in b mock-infected, d PR8+vehicle, and f PR8+NSC77427 for GRP, a neuroendocrine granule marker. Scale bars shown are 50 μm for a-d, and 10 μm for e and f. Arrows are positioned in each panel within a treatment group to indicate groups of positive cells, except in b, where the arrow indicates GRP− cells adjacent to the PGP 9.5+ cells shown in a. g Graphic image analysis of PGP 9.5+ and GRP+ cells after IHC staining. Slides were blinded by an observer with no knowledge of experimental groups. PCP9.5+ and GRP+ cells were counted throughout each complete lung lobe crosssection for each animal, with validation by x40 micrographs of each slide. Total tissue area was determined by using ImageI thresholding analysis (methyl green counterstain) because PNECs are mainly observed in alveolar ducts and small bronchioles. *p=0.009; **p=0.001
Immunohistochemical (IHC) staining for the mature GRP peptide (a PNEC granule marker) and PGP 9.5 (the neural/NE cytoplasmic isoform of ubiquitin-C-terminal hydrolase-1) was carried out as described previously. In brief, formalin-fixed, paraffin-embedded lung sections were treated for 10 min with Triton X-100 (0.3% in phosphate-buffered saline (PBS)), then normal serum blocking. Diluted primary antibodies were added to sections overnight at 4° C., followed by washing in PBS and incubation for 2 h at 4° C. with 1:200 dilution of biotinylated secondary antibodies (Vector, Burlingame, Calif., USA). After blocking in 3% H2O2 in methanol, Vector ABC Elite was applied to slides for 30 min. Slides were developed by using diaminobenzidine and H2O2, and then counterstained in 2% aqueous methyl green. All slides were blinded for semi-quantitative analysis. Results are expressed as mean numbers of cells positive for PGP 9.5 or GRP per mm^2 lung tissue section. […]

[5] = tested on: GRP-induced angiogenesis; settings: 0.5 μM; in vitro and in vivo; cited from earlier work
[6] = tested on: LPS signaling (TLR4) in WT C57BL/6J peritoneal macrophages; assay type: cell-based, mouse; settings: 2 h
[7] = 20 μM/mouse i.v. daily day 2 to 6

Compound | lung injury [1] | LPS-induced MyD88-dependent (TNF-α) or TRIF-dependent (IFN-β, RANTES) gene expression [2] | lung mRNA expression of IL-1β [3, 7] | lung mRNA expression of RANTES [3, 7] | lung mRNA expression of TNF-α [3, 7] | lung mRNA expression of IFN-β ([3]; i.v. daily day 2 to 6) | fewer PGP+ PNECs vs. PR8-infected untreated ([4]; NSC77427 days 2 to 6, IHC image analysis, p=0.009) [%] | GRP immunostaining in the extracellular matrix ([4]; PR8-infected, NSC77427 days 2 to 6) | decrease in GRP+ PNECs ([4]; PR8-infected, NSC77427 days 2 to 6, IHC image analysis, p=0.001) [%] | GRP-induced angiogenesis [5] | MyD88-dependent and TRIF-dependent cytokine gene expression with suboptimal LPS ([6]; GRP 1-100 nM plus LPS 0.1 and 1 ng/ml) | synergistic effect with LPS at higher doses of LPS ([6]; GRP 1-100 nM plus LPS up to 10 ng/ml) | cytokine gene expression, GRP alone ([6]; GRP 1-100 nM, no LPS)
Nc1nc(Cl)cc(NCCO)n1 [NSC77427, 2-[(2-amino-6-chloropyrimidin-4-yl)amino]ethanol] | mitigated | did not block | blunted | blunted | blunted | blunted | ~50 | visibly less | ~70 | blocked GRP-induced angiogenesis |  |  | 
GRP: exogenous gastrin-releasing peptide added to macrophages with LPS (VPLPAGGGTVLTKMYPRGNHWAVGHLM; ends and bridges not checked; UniProt P07492 24-50, looked up) |  |  |  |  |  |  |  |  |  |  | synergistic induction | largely lost | did not induce cytokine gene expression
